From PMC5161367, “Discovery of Novel Small Molecule Inhibitors of VEGF Expression in Tumor Cells Using a Cell-Based High Throughput Screening Platform” (PLoS ONE, 2016) come the findings set out here.

Read-outs that look alike come from different tables or passages of the source. A value given as a limit tells only on which side of the number the result lay.

One data set concerns VEGF. Put plainly: VEGF ELISA, hypoxia-induced VEGF production in HeLa cells. Format: cell-based. The following applies: Homo sapiens; for IC50: HeLa cells under hypoxia, read-out: IC50, inhibition of hypoxia induced VEGF production (VEGF ELISA). The method, then: Cells were treated with vehicle control (0.5% DMSO) or compounds at the indicated concentration for 48 hours, and specific proteins in conditioned medium were quantified using commercially available ELISA kits (R&D Systems) according to the manufacturer’s recommendations. VEGF was quantified in HeLa cells under hypoxia (1% oxygen); Tumor necrosis factor alpha (TNFα) was quantified in CEM cells stimulated with 1 μg/mL interleukin-1 beta (Sigma); erythropoietin (EPO) was quantified in HepB3 cells under hypoxic conditions (1% oxygen); and granulocyte colony-stimulating factor (G-CSF), basic fibroblast growth factor (FGF-2) and insulin-like growth factor 1 (IGF-1) were quantified without induction in HT1080 cells, HeLa cells and HepG2 cells, respectively.
A sigmoid dose-response with variable slope regression curve was generated for each compound. The maximal and minimal inhibition values were set at 100% and 0%, respectively. IC50 and CC50 values were automatically calculated after curve fitting by the software.
Hits from the HTS were then evaluated for their ability to modulate hypoxia-inducible endogenous VEGF expression. HeLa cells were cultured under hypoxic conditions (1% O2, 5% CO2, balanced with nitrogen) in the presence or absence of compound at a concentration of 7.5 μM in duplicate. VEGF protein levels in the conditioned medium were quantified by ELISA. […] Compounds that reduced endogenous hypoxia-induced VEGF by 50% or more at a single concentration of 7.5 μM were further evaluated.
The IC50 values for compounds that inhibited VEGF production were determined next. A seven-point dose-response analysis was performed for each of the 137 compounds. In parallel, a dose-response cytotoxicity assay was performed to determine the CC50 (the concentration resulting in 50% cellular growth inhibition or cytotoxicity) under the same conditions as VEGF ELISA to determine whether hypoxia-induced VEGF inhibition was due to cytotoxicity.

A short description of data set [1]: Cytotoxicity, CellTiter-Glo, PBMC. Format: cell-based. The following applies: human, peripheral blood mononuclear cells (PBMC). The method, then: The cytotoxicity of compounds was determined in peripheral blood mononuclear cells (PBMCs) and primary human foreskin fibroblasts, both purchased frozen from AllCells, Inc, CA. Cells were incubated with test compound at various concentrations in triplicate for a period of 3 days in 96-well plates. The cytotoxicity or inhibition of cell proliferation was determined using a standard CellTiter-Glo® Luminescent Cell Viability Assay (Promega, Madison, WI) that measures total cellular adenosine triphosphate (ATP) concentration as a function of cell viability. In addition, cytotoxicity assays were also performed in HeLa cells in parallel with VEGF ELISA to ensure that the inhibition of VEGF production in HeLa cells was not due to cytotoxicity.
Background: Cellular ATP, detected with luciferase, serves as a proxy for viable cell number.

The subject of data set [2] is membrane bound VEGF (VEGF189 and VEGF206). Put plainly: Western blot of membrane bound VEGF isoforms. The data set is classed as cell-based, human. The procedure: Cells were treated with test compounds for the indicated times as shown in the Results section. Whole-cell extracts were obtained by lysing cells in M-PER lysis buffer (Pierce, Rockford, IL) containing 150 mM NaCl, 2 mM EDTA and 1x Halt protease inhibitors (Pierce). Samples were resolved on a Tris-glycine Criterion gel (Bio-Rad) and transferred onto a 0.45 μm nitrocellulose membrane. The membranes were then immunoblotted with specific antibodies as shown in the Results section: antibody (C1) specific for VEGF was purchased from Santa Cruz Biotechnologies (used at 1:200 dilution); and antibody specific for human β-actin was purchased from Abcam (Cambridge, MA) (1:10000 dilution). Immunodetection was done using the corresponding secondary antibodies conjugated with infrared dyes or horseradish peroxidase. The expression levels of proteins were quantified with Odyssey (LI-COR) or using enhanced chemiluminescence (Pierce).
The effect of PTC-858 on the levels of the soluble and membrane bound VEGF isoforms was characterized. The levels of the soluble VEGF isoforms (VEGF121 and VEGF165) were assessed from conditioned medium as described above. The effect of PTC-858 on the production of the high molecular weight, membrane bound isoforms (VEGF189 and VEGF206), was determined by Western blot analysis using a VEGF specific antibody. β-actin levels were used as an internal loading control. […]
A general note: A western blot detects proteins with antibodies after separation by electrophoresis.

In data set [3] the test system is HT1080 human tumor xenografts. Put plainly: HT1080 human tumor xenograft growth in athymic nude mice. Format: in vivo, mouse. The procedure: Log phase growing tumor cells (5–10 x 10^6 cells/mouse, depending on the cell line) were implanted subcutaneously in athymic nude mice. When the average tumor size reached the indicated size, mice were randomly divided into groups and administered vehicle (5% DMSO/ 95% PEG-300) or test compounds by oral gavage. Tumor volumes were measured twice per week using digital calipers and body weights once per week. Tumor volume was determined according to the formula: L x (W)^2/2, where L is the longest dimension and W is the shortest dimension.
These pharmaceutical properties enabled the testing of this compound in a human xenograft pharmacodynamic model in mice to measure modulation of intratumor VEGF levels. Established human HT1080 fibrosarcoma tumors grown as a xenograft in nude mice were treated with PTC-858 orally at a dose of 200 mg/kg, twice per day for 7 days. […] In addition, tumor growth was reduced by 25% after only 7 days of treatment.
Tumors in vehicle-treated mice reached an average volume of 1 cm^3 after 15 days, while tumors in mice treated with 10 mg/kg PTC-510 reached the same volume in about 40 days, a tumor growth delay of 25 days.

Consider `COc1ccc(C2c3[nH]c4ccc(Br)cc4c3CC3C(=O)N(C4CCCCC4)C(=S)N32)cc1.O=C(O)C(F)(F)F` (stereo not drawn) [PTC-510, 9-bromo-2-cyclohexyl-5-(4-methoxyphenyl)-3-thioxo-2,3,5,6,11,11a-hexahydro-1H-imidazo[1’,5’:1,6]pyrido[3,4-b]indol-1-one trifluoroacetate], for which, in the data set with VEGF, the IC50 (as a rule, the midpoint of a concentration-inhibition curve) is roughly 0.006 µM. The EC50 in the data set with VEGF (HeLa cells, read-out: HeLa VEGF ELISA/SAR EC50) was 0.006 µM. In the data set on VEGF (HeLa cells, read-out: HeLa VEGF ELISA/SAR EC90), the EC90 stood at 0.05 µM. In addition, the CC50 (as a rule, the concentration at which the toxic effect on the cells reaches its halfway point) at 3 days in data set [1] (read-out: PBMC cytoxtoxicity CC50) was greater than 30 µM. For the same compound, the “effect on production of membrane bound VEGF189/206 (Western blot)” value in data set [2] (Fig 4c) was “inhibits the production of the membrane bound VEGF189/206”. Further, the “time for tumors to reach an average volume of 1 cm^3” value in data set [3] (10 mg/kg, oral, vehicle 15 days) is “about 40 days”. The tumor growth delay in data set [3] (10 mg/kg, oral, vs vehicle) is 25 days. Moreover, in data set [3] (50 mg/kg group, 3/7 mice, on study more than 90 days), the “mice with tumors that remained too small to measure (<50 mm^3)” value is recorded as 43%. Moreover, the “time for tumors to reach 1 cm^3” value in data set [3] (50 mg/kg, oral, dosing stopped at 50 days) is greater than 50 days. Moreover, in data set [3] (oral, 10 and 50 mg/kg), the “effect of prolonged treatment on tumor growth” value is recorded as “reduced tumor growth significantly in a dose-dependent fashion”.
For `Brc1ccc2[nH]c3c(c2c1)CCCC3n1cccc1` (stereo not drawn) [PTC-858, 6-bromo-1-(1H-pyrrol-1-yl)-2,3,4,9-tetrahydro-1H-carbazole], in the data set with VEGF (HeLa cells under hypoxia (1% oxygen), 48 hours, read-out: ELISA EC50, VEGF), the EC50 was determined as 0.013 ± 0.02 µM. Besides, the IC50 with VEGF worked out at 0.0075 µM. For the same compound, the CC50 at 72 hours in data set [1] (72 hours, CellTiter-Glo) is greater than 30 µM. The “effect on level of membrane bound VEGF (Western blot)” value in data set [2] (HeLa cells (text b57), β-actin loading control) was “reduced the level of membrane bound VEGF in HeLa cells in a dose-dependent fashion”. The tumor growth reduced in data set [3] (200 mg/kg orally, twice per day, after 7 days of treatment) was 25%.
